Test results from patent publication US20070010527A1, “4-Anilino-3-quinolinecarbonitriles for the treatment of cancer” (priority 2005, published 2007).

Legend:
[1] = tested on: HSB-2 T-cell leukemia cells; assay: Proliferation assay, MTS; format: cell-based; conditions: HSB2, 96 h, day 4
Description: (§1) For the experiments described in Table 3, 1000 cells were plated in each well of a 96 well cell culture dish on day 0 in the standard growth medium for that particular cell line. Compound was added on day 1. Relative cell number was determined on day 4.
(§2) Some assays were monitored with the aid of the CellTiter 96 assay (Promega #G3580). With this assay, on day 4, detection reagent was added to the 96 well plate and absorbance at 490 nm was measured.

[2] = tested on: Molt-4 T-cell leukemia cells; assay: Proliferation assay, MTS; format: cell-based; conditions: Homo sapiens, MOLT-4, 96 h, day 4
Description: as §1, §2

[3] = tested on: A375 melanoma subcutaneous tumor xenografts; assay: A375 melanoma subcutaneous tumor xenograft in nude mice; format: in vivo; conditions: 30 mg/kg bid ip 9 days, day 12
Description: All animal studies were conducted under an approved Institutional Animal Care and Use Committee protocol. Tumor cells were suspended to 50 million cells/ml and 0.2 ml of the cell suspension was injected subcutaneously into a flank of 6-7 weeks old female nude mice (Charles River, Wilmington, Mass.). Mice with tumors larger than 200 mm^3 after one week were administered vehicle or compound by intraperitoneal injection at the indicated doses in 0.2 ml of vehicle containing 0.5% methylcellulose and 0.4% polysorbate 80 (Tween 80).

[4] = tested on: Capan pancreatic tumor cells; assay: Proliferation assay, CellTiter-Glo; format: cell-based; conditions: 96 h, Cell-glo, day 4
Description: as §1
(§3) The CellTiter-Glo luminescent cell viability assay (Promega #G7573) was used where cells were lysed with the CellTiter Glo reagent, agitated briefly and allowed to sit at room temperature for 30 minutes prior to analyzing on a Wallac plate reader equipped for luminescence readings.

[5] = tested on: HN5 head and neck tumor cells; assay: Proliferation assay, CellTiter-Glo; format: cell-based; conditions: 96 h, Cell-glo, day 4
Description: as §1, §3

[6] = tested on: BxPC3 pancreatic tumor cells; assay: Proliferation assay, CellTiter-Glo; format: cell-based; conditions: Homo sapiens, BXPC-3, 96 h, Cell-glo, day 4
Description: as §1, §3

[7] = tested on: DU145 prostate tumor cells; assay: Proliferation assay, CellTiter-Glo; format: cell-based; conditions: Homo sapiens, DU-145, 96 h, Cell-glo, day 4
Description: as §1, §3

[8] = tested on: LnCap prostate tumor cells; assay: Proliferation assay, CellTiter-Glo; format: cell-based; conditions: Homo sapiens, 96 h, Cell-glo, day 4
Description: as §1, §3

[9] = tested on: MiaPaca pancreatic tumor cells; assay: Proliferation assay, CellTiter-Glo; format: cell-based; conditions: Homo sapiens, MIA PaCa-2, 96 h, Cell-glo, day 4
Description: as §1, §3

A375 melanoma cells [10] = assay: Proliferation assay, CellTiter-Glo; format: cell-based; conditions: Homo sapiens, A-375, 96 h, Cell-glo, day 4
Description: as §1, §3

HS-294-T melanoma cells = assay: Proliferation assay, SRB; format: cell-based; conditions: Homo sapiens, 96 h, day 4
Description: as §1
(§4) The sulforhodamine B (SRB) assay was used for certain melanoma lines. In this assay, the serum concentration in the growth medium was 5% and culture medium volume was 0.2 ml. On day 4, 0.05 ml of 50% trichloroacetic acid was added to the medium and the plate was allowed to sit at room temperature for 1 hour. The medium was decanted and the plate was washed 3 times with water. The washed plates were dried, and then 0.08 ml of SRB reagent (SRB was obtained from Sigma; 0.4% SRB in 1% acetic acid) was added. After 10 minutes at room temperature, the plates were washed with 1% acetic acid until no free red color remained in solution. The bound SRB reagent was solubilized with 0.15 ml 10 mM Tris (no acid added). After agitating for 5 minutes on a shaker, the absorbance was read at 540 nm.

RPMI-7951 melanoma cells = assay: Proliferation assay, SRB; format: cell-based; conditions: Homo sapiens, RPMI-7951, 96 h, day 4
Description: as §1, §4

A375 melanoma cells [11] = assay: Proliferation assay, SRB; format: cell-based; conditions: Homo sapiens, A-375, 96 h, day 4
Description: as §1, §4

PKA = target: T1, PKA (Bos taurus, UniProt P00517); assay: PKA Scintiplate kinase assay; format: biochemical
T1 construct: purchased Upstate 14-114
Excerpt: PKA, PKC, S6 kinase, CAMKII and p38 kinase assays.

CAMKII = CAMKII kinase ELISA; format: biochemical
Description: Assay Dilution Buffer (ADB): 20 mM MOPS, pH 7.2, 25 mM β-glycerol phosphate, 5 mM EGTA, 1 mM sodium orthovanadate, 1 mM dithiothreitol. 2. […] 3. […] 4. […] 5. […] 3. […] 4. […] 5. […] 6. […] 7.

[12] = tested on: HN5 head and neck tumor line; assay: Phosphorylation of downstream proteins in EGF-stimulated HN5 cells; format: cell-based; conditions: serum-starved HN5 cells, compound 4 hours, then EGF 50 ng/ml ten minutes
Description: FIG. 1. […] Serum-starved HN5 cells were treated with the compound for 4 hours, after which EGF was added to 50 ng/ml for ten minutes. Lysates were analyzed for Stat3 Y705, c-Cbl Y731 and Y774 and caveolin Y14 phosphorylation.

What does the source list for `COc1cc(Nc2c(C#N)cnc3cc(OCCCN4CCN(C)CC4)c(OC)cc23)c(Cl)cc1Cl` [4-(2,4-dichloro-5-methoxy-phenylamino)-6-methoxy-7-[3-(4-methyl-piperazin-1-yl)-propoxy]-quinoline-3-carbonitrile]?
IC50 [1]: 0.014 µM; IC50 [2]: 8.2 µM; T/C [3]: 39%, day 12; IC50 [4]: 5.9 µM; IC50 [5]: 0.3 µM; IC50 [6]: 3.9 µM; IC50 [7]: 1.6 µM; IC50 [8]: 3.5 µM; IC50 [9]: 1.3 µM; IC50 (A375 melanoma cells [10]): 1.2 µM; IC50 (HS-294-T melanoma cells): 0.6 µM; IC50 (RPMI-7951 melanoma cells): 1.2 µM; IC50 (A375 melanoma cells [11]): 0.9 µM; IC50 (PKA): 5.03 µM; IC50 (CAMKII): 6.25 µM; phosphorylation of Y705 of Stat3 [12]: reduced; phosphorylation of c-Cbl Y731 [12]: reduced; phosphorylation of caveolin Y14 [12]: reduced
